Entries after “also recorded” stand apart in the source; their conditions may differ.

Consider 13 molecules from paper PMC8371548 (BioTechniques, 2021).

One assay relates to H295R cells. Nature of the assay: H295R cell-based steroidogenesis assay. Further details: species or system human. The note with it: for effect on testosterone production in words: 10^−11 to 10^−5 M.
Assay [1] relates to AR. The note with it: cited from earlier work; for EC50: read-out: AR-EcoScreen assay EC50, ref Dennis et al. [18].
The test system of assay [2] is AR. The note with it: cited from earlier work.
In a further assay the target is T1, androgen receptor (AR) (Homo sapiens, UniProt P10275).
T1 sequence (P10275 1-920): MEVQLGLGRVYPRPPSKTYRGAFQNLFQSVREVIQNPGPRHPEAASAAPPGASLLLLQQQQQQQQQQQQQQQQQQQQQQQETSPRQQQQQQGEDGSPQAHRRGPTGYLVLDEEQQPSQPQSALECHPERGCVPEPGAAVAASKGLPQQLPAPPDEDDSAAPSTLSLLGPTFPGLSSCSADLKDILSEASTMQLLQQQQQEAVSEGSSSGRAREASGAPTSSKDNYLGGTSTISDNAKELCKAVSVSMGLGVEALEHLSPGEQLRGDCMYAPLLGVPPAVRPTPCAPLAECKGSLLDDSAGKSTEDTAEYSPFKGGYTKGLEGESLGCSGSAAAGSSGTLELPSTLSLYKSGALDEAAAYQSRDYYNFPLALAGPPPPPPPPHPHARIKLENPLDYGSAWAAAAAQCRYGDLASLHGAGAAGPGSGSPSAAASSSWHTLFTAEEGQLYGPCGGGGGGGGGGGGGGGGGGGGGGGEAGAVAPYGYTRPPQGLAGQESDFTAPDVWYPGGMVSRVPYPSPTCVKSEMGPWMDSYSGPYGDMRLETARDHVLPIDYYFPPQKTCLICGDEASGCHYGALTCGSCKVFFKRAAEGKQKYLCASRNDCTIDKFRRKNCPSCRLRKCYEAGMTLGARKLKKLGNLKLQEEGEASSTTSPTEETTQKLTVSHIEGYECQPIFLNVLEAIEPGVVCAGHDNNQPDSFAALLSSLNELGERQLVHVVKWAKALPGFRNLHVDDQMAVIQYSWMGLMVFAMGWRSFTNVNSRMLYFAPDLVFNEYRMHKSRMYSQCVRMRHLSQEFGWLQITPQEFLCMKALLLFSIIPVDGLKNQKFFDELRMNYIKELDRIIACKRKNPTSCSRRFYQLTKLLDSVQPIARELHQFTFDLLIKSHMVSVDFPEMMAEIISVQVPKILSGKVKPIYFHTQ
Type of assay: cell-based.

The subject of assay [3] is AR. The note with it: read-out: IC50 range in ICCVAM meta-analysis; cited from earlier work.
In assay [4] the test system is AR. As to conditions: cited from earlier work. This is another data set of the same source.
For assay [5], the system named is AR. The note with it: cited from earlier work. This is another data set of the same source.
Assay [6] deals with AR. As to conditions: at high concentrations (10^−5 M); cited from earlier work.

For the molecule `C#CC1(O)CC[C@H]2[C@@H]3CCC4=CC(=O)CC[C@@H]4[C@H]3CC[C@@]21CC` (mixture of isomers) [Norgestrel, norgestrel], the “effect on testosterone production in words” value (from here on “effect … in words”) in the assay with H295R cells is on record as “increased testosterone production”. In addition, the concentration giving a half-maximal response (EC50) (as a rule, the concentration that produces a half-maximal response) with H295R cells (Homo sapiens, NCI-H295R, read-out: H295R testosterone assay EC50) was 730 nM.

In the case of `C[C@]12CCC(=O)C=C1CC[C@@H]1[C@@H]2CC[C@]2(C)C(=O)CC[C@@H]12` [4-Androstenedione], the EC50 with AR [1] is […].

Take `C[C@]12CCC(=O)C[C@@H]1CC[C@@H]1[C@@H]2CC[C@]2(C)[C@@H](O)CC[C@@H]12` [5α-Dihydrotestosterone]: the EC50 in the assay with AR [1] was […].

On to `C#C[C@]1(O)CC[C@H]2[C@@H]3CCc4cc(O)ccc4[C@H]3CC[C@@]21C` [17α-Ethinylestradiol, 17α-Ethynylestradiol], for which the “AR antagonist classification in AR-EcoScreen assay” value with AR [2] is given as “AR antagonist”.

For the molecule `C[C@]12CCC(=O)C=C1CC[C@@H]1[C@@H]2CC[C@@]2(C)[C@H]1CC[C@]2(C)O` [17α-Methyltestosterone], in the assay on AR [1], the concentration giving a half-maximal response (EC50) was […].

As to `C[C@]12C=CC3=C4CCC(=O)C=C4CC[C@H]3[C@@H]1CC[C@@H]2O` [17β-Trenbolone, 17ß-Trenbolone], the “AR agonist activity in words” value on androgen receptor (AR) is “strongly induced autobioluminescence; also recorded: induced autobioluminescent signal exceeding the maximal response of 5α-dihydrotestosterone”.

For the molecule `CC(O)(CS(=O)(=O)c1ccc(F)cc1)C(=O)Nc1ccc(C#N)c(C(F)(F)F)c1` (stereo not drawn) [Bicalutamide], in the assay on AR [3], the IC50 (as a rule, the point on the concentration scale where inhibition reaches its midpoint) is […].

Regarding `C[C@]12C[C@H](O)[C@H]3[C@@H](CCC4=CC(=O)CC[C@@]43C)[C@@H]1CC[C@@H]2C(=O)CO` [Corticosterone], the “AR transcriptional activity in MDA-kb2 assay” value in the assay with AR [4] is on record as “Positive AR transcriptional activity”. Besides, in the assay on AR [1], the “AR agonist classification in AR-EcoScreen assay” value is “Positive AR transcriptional activity”. In addition, the “AR agonistic effects in yeast-based reporter assays” value in the assay on AR [5] was “failed to elicit positive AR agonistic effects”.

On to `CC(C)C(=O)Nc1ccc([N+](=O)[O-])c(C(F)(F)F)c1` [Flutamide], for which the “effect … in words” value is given as “did not induce autobioluminescence or change testosterone production” with H295R cells and “did not demonstrate a detectable change in testosterone production” in the assay with H295R cells (listed as flutamide).

In the case of `CC(C)(O)C(=O)Nc1ccc([N+](=O)[O-])c(C(F)(F)F)c1` [Hydroxyflutamide], the concentration for half-maximal inhibition (IC50) in the assay on AR [3] is […]. In addition, the “effect … in words” value in the assay on H295R cells is “did not alter testosterone production”; in the assay on H295R cells (listed as hydroxyflutamide), “did not change testosterone levels”. For the same molecule, in the assay with AR [6], the “AR transcriptional activation activity” value is given as “low AR transcriptional activation activity”.

Consider `CC(=O)N1CCN(c2ccc(OCC3COC(Cn4ccnc4)(c4ccc(Cl)cc4Cl)O3)cc2)CC1` (stereo not drawn) [Ketoconazole], for which the “AR agonist classification in AR-EcoScreen assay” value in the assay with AR [1] was “negative AR agonist”. Moreover, in the assay on AR [5], the “AR agonism response in yeast assays” value is on record as “positive AR agonism response”.

`CC#C[C@]1(O)CC[C@H]2[C@@H]3CCC4=CC(=O)CCC4=C3[C@@H](c3ccc(N(C)C)cc3)C[C@@]21C` [Mifepristone]: the concentration for a half-maximal effect (EC50) in the assay on AR [1] was […].

Turning to `C[C@]12CC[C@H]3[C@@H](CCC4=CC(=O)CC[C@@]43C)[C@@H]1CC[C@@H]2O` [Testosterone], in the assay on AR [1], the EC50 is […].
